According to US20100280010A1, “CHEMICAL COMPOUNDS” (priority 2006, published 2010):

The compounds below were run on HIV-1 (Ba-L or IIIB) infection of HOS cell line (expressing hCXCR4/hCCR5/hCD4/pHIV-LTR-luciferase) (assay: HOS HIV-1 Infectivity Assay). Conditions: Human immunodeficiency virus 1, HOS, virus strain not given, read-out: Activity Level.
Type: cell-based
Protocol: Compounds were profiled against two HIV-1 viruses, the M-tropic (CCR5 utilizing) Ba-L strain and the T-tropic (CXCR4 utilizing) IIIB strain. Ba-L was propagated in either peripheral blood lymphocytes or SupT1/CCR5+/CXCR4+ cells. IIIB was propagated in peripheral blood lymphocytes. Compounds were tested for their ability to block infection of the HOS cell line (expressing hCXCR4/hCCR5/hCD4/pHIV-LTR-luciferase) by either HIV-1 Ba-L or HIV-1 IIIB. Compound cytotoxicity was also examined in the absence of virus addition.
HOS cells (expressing hCXCR4/hCCR5/hCD4/pHIV-LTR-luciferase) were harvested and diluted in Dulbeccos modified Eagles media supplemented with 2% FCS to a concentration of 120,000 cells/ml. The cells were plated into 96-well plates (50 μl per well) and the plates were placed in a tissue culture incubator ([…]; 5% CO2195% air) for a period of 24 h.
Subsequently, 50 μl of the desired drug solution (2 times the final concentration) was added to each well and the plates were returned to the tissue culture incubator (370° C.; 5% CO2/95% air) for 1 h. Following this incubation, 60 μl of diluted virus (4 times the final concentration) was added to 60 μl of 2× the final desired concentration of the compound and 100 μl of this compound/virus mix was added to each well (approximately 2 million RLU per well of virus). The plates were returned to the tissue culture incubator (370° C.; 5% CO2/95% air) and were incubated for a further 96 h.
Following this incubation the endpoint for the virally infected cultures was quantified following addition of Steady-Glo Luciferase assay system reagent (Promega, Madison, Wis.). Cell viability or non-infected cultures was measured using a CellTiter-Glo luminescent cell viability assay system (Promega, Madison, Wis.). All luminescent readouts are performed on a Topcount luminescence detector (Packard, Meridien, Conn.).

Structure (SMILES) | IC50
CCCN(Cc1nc2cccc(N3CCC(N(C)C)CC3)n2c1C(N)=O)[C@H]1CCCc2cccnc21 [Example 67, 5-[4-(dimethylamino)-1-piperidinyl]-2-({propyl[(8S)-5,6,7,8-tetrahydro-8-quinolinyl]amino}methyl)imidazo[1,2-a]pyridine-3-carboxamide] | < 100 nM
CCCN(Cc1nc2cccc(N3CCN(C)CC3)n2c1C#N)[C@H]1CCCc2cccnc21 [Example 25, 5-(4-Methyl-1-piperazinyl)-2-({propyl[(8S)-5,6,7,8-tetrahydro-8-quinolinyl]amino}methyl)imidazo[1,2-a]pyridine-3-carbonitrile] | < 100 nM
CCN(Cc1nc2cccc(N3CCC(N(C)C)CC3)n2c1C(N)=O)[C@H]1CCCc2cccnc21 [Example 63, 5-[4-(dimethylamino)-1-piperidinyl]-2-({ethyl[(8S)-5,6,7,8-tetrahydro-8-quinolinyl]amino}methyl)imidazo[1,2-a]pyridine-3-carboxamide] | < 100 nM
CN(C)C1CCN(c2cccc3nc(CN(C)[C@H]4CCCc5cccnc54)c(C(N)=O)n23)CC1 [Example 59] | < 100 nM
CCCN(Cc1nc2cccc(N3CCN(C)CC3)n2c1Cl)[C@H]1CCCc2cccnc21 [Example 82, (8S)—N-{[3-Chloro-5-(4-methyl-1-piperazinyl)imidazo[1,2-a]pyridin-2-yl]methyl}-N-propyl-5,6,7,8-tetrahydro-8-quinolinamine] | < 100 nM
CN1CCN(c2cccc3nc(CN(C)[C@H]4CCCc5cccnc54)c(C(N)=O)n23)CC1 [Example 18, 5-(4-Methyl-1-piperazinyl)-2-({methyl[(8S)-5,6,7,8-tetrahydro-8-quinolinyl]amino}methyl)imidazo[1,2-a]pyridine-3-carboxamide] | < 100 nM
CCN(Cc1nc2cccc(N3CCN(C)CC3)n2c1C(N)=O)[C@H]1CCCc2cccnc21 [Example 22, 2-({Ethyl[(8S)-5,6,7,8-tetrahydro-8-quinolinyl]amino}methyl)-5-(4-methyl-1-piperazinyl)imidazo[1,2-a]pyridine-3-carboxamide] | < 100 nM
CCCN(Cc1nc2cccc(N3CC[C@@H](N(C)C)C3)n2c1C#N)[C@H]1CCCc2cccnc21 [Example 46, 5-[(3R)-3-(Dimethylamino)-1-pyrrolidinyl]-2-({propyl[(8S)-5,6,7,8-tetrahydro-8-quinolinyl]amino}methyl)imidazo[1,2-a]pyridine-3-carbonitrile] | < 100 nM
CCN(Cc1nc2cccc(N3CC[C@@H](N(C)C)C3)n2c1C(N)=O)[C@H]1CCCc2cccnc21 [Example 43, 5-[(3R)-3-(Dimethylamino)-1-pyrrolidinyl]-2-({ethyl[(8S)-5,6,7,8-tetrahydro-8-quinolinyl]amino}methyl)imidazo[1,2-d]pyridine-3-carboxamide] | < 100 nM
CC(C)N(Cc1nc2cccc(N3CCN(C)CC3)n2c1C#N)[C@H]1CCCc2cccnc21 [Example 29, 2-({(1-Methylethyl)[(8S)-5,6,7,8-tetrahydro-8-quinolinyl]amino}methyl)-5-(4-methyl-1-piperazinyl)imidazo[1,2-a]pyridine-3-carbonitrile] | < 100 nM
CCN1CCN(c2cccc3nc(CN(C)[C@H]4CCCc5cccnc54)c(Cl)n23)CC1 [Example 73, (8S)—N-{[3-Chloro-5-(4-ethyl-1-piperazinyl)imidazo[1,2-a]pyridin-2-yl]methyl}-N-methyl-5,6,7,8-tetrahydro-8-quinolinamine] | < 100 nM
CCCN(Cc1nc2cccc(N3CCN[C@@H](C)C3)n2c1Cl)[C@H]1CCCc2cccnc21 [Example 88, (8S)—N-({3-Chloro-5-[(3S)-3-methyl-1-piperazinyl]imidazo[1,2-a]pyridin-2-yl}methyl)-N-propyl-5,6,7,8-tetrahydro-8-quinolinamine] | < 100 nM
CC(C)N(Cc1nc2cccc(N3CC[C@@H](N(C)C)C3)n2c1C#N)[C@H]1CCCc2cccnc21 [Example 50, 5-[(3R)-3-(Dimethylamino)-1-pyrrolidinyl]-2-({(1-methylethyl)[(8S)-5,6,7,8-tetrahydro-8-quinolinyl]amino}methyl)imidazo[1,2-a]pyridine-3-carbonitrile] | < 100 nM
CCCN(Cc1cn2c(N3CCC(N(C)C)CC3)cccc2n1)[C@H]1CCCc2cccnc21 [Example 64, (8S)—N-({5-[4-(dimethylamino)-1-piperidinyl]imidazo[1,2-a]pyridin-2-yl}methyl)-N-propyl-5,6,7,8-tetrahydro-8-quinolinamine] | < 100 nM
CN(C)C1CCN(c2cccc3nc(CN(C)[C@H]4CCCc5cccnc54)c(Cl)n23)CC1 [Example 75, (8S)—N-({3-Chloro-5-[4-(dimethylamino)-1-piperidinyl]imidazo[1,2-a]pyridin-2-yl}methyl)-N-methyl-5,6,7,8-tetrahydro-8-quinolinamine] | < 100 nM
CN(C)[C@@H]1CCN(c2cccc3nc(CN(C)[C@H]4CCCc5cccnc54)c(C#N)n23)C1 [Example 38, 5-[(3R)-3-(Dimethylamino)-1-pyrrolidinyl]-2-({methyl[(8S)-5,6,7,8-tetrahydro-8-quinolinyl]amino}methyl)imidazo[1,2-a]pyridine-3-carbonitrile] | < 100 nM
CCCN(Cc1cn2c(N3CCN(C)CC3)ccc(F)c2n1)[C@H]1CCCc2cccnc21 [Example 90, (8S)—N-{[8-Fluoro-5-(4-methyl-1-piperazinyl)imidazo[1,2-a]pyridin-2-yl]methyl}-N-propyl-5,6,7,8-tetrahydro-8-quinolinamine] | < 100 nM
CCCN(Cc1nc2cccc(N3CC[C@@H](N(C)C)C3)n2c1Cl)[C@H]1CCCc2cccnc21 [Example 86, (8S)—N-({3-Chloro-5-[(3R)-3-(dimethylamino)-1-pyrrolidinyl]imidazo[1,2-a]pyridin-2-yl}methyl)-N-propyl-5,6,7,8-tetrahydro-8-quinolinamine] | < 100 nM
CN(C)[C@@H]1CCN(c2cccc3nc(CN(C)[C@H]4CCCc5cccnc54)c(Cl)n23)C1 [Example 74, (8S)—N-({3-Chloro-5-[(3R)-3-(dimethylamino)-1-pyrrolidinyl]imidazo[1,2-a]pyridin-2-yl}methyl)-N-methyl-5,6,7,8-tetrahydro-8-quinolinamine] | < 100 nM
CN(C)[C@@H]1CCN(c2cccc3nc(CN(Cc4ccccc4)[C@H]4CCCc5cccnc54)c(C#N)n23)C1 [Example 53, 5-[(3R)-3-(Dimethylamino)-1-pyrrolidinyl]-2-({(phenylmethyl)[(8S)-5,6,7,8-tetrahydro-8-quinolinyl]amino}methyl)imidazo[1,2-a]pyridine-3-carbonitrile] | < 100 nM
CC(C)N(Cc1nc2cccc(N3CCN(C)CC3)n2c1C(N)=O)[C@H]1CCCc2cccnc21 [Example 30, 2-([(1-Methylethyl)[(8S)-5,6,7,8-tetrahydro-8-quinolinyl]amino]methyl)-5-(4-methyl-1-piperazinyl)imidazo[1,2-a]pyridine-3-carboxamide] | < 100 nM
CC(=O)c1c(CN(C)[C@H]2CCCc3cccnc32)nc2cccc(N3CCN(C)CC3)n12 [Example 14, 1-[5-(4-Methyl-1-piperazinyl)-2-({methyl[(8S)-5,6,7,8-tetrahydro-8-quinolinyl]amino}methyl)imidazo[1,2-a]pyridin-3-yl]ethanone] | < 100 nM
